For assay [1], the system named is SETVI: Setaria viridis. Briefly: Pre-emergence herbicide efficacy at 80 g/ha, SETVI. To be noted: scored visually after about 3 weeks. Type of assay: in vivo. The text has this:
(§1) Seeds of monocotyledonous and dicotyledonous weed plants and crop plants were placed in plastic or organic planting pots and covered with soil. The compounds of the invention, formulated in the form of wettable powders (WP) or as emulsion concentrates (EC), were then applied to the surface of the covering soil as aqueous suspension or emulsion with addition of 0.5% additive at a water application rate equivalent to 600 l/ha. After the treatment, the pots were placed in a greenhouse and kept under good growth conditions for the test plants. After about 3 weeks, the efficacy of the preparations was scored visually in comparison with untreated controls as percentages. For example, 100% activity=the plants have died, 0% activity=like control plants. Tables D1 to D12 below show the effects of selected compounds of the general formula (I) according to Table 1 on various harmful plants and an application rate corresponding to 80 g/ha, which were obtained by the experimental procedure mentioned above.

Assay [2] relates to SETVI: Setaria viridis. The assay is described as follows: Post-emergence herbicidal efficacy at 80 g/ha, SETVI. To be noted: visual rating about 3 weeks after treatment vs untreated controls. Type of assay: in vivo. On the procedure:
(§2) Seeds of monocotyledonous and dicotyledonous weeds and crop plants were placed in sandy loam in plastic or organic planting pots, covered with soil and cultivated in a greenhouse under controlled growth conditions. 2 to 3 weeks after sowing, the test plants were treated at the one-leaf stage. The compounds of the invention, formulated in the form of wettable powders (WP) or as emulsion concentrates (EC), were then sprayed onto the green parts of the plants as aqueous suspension or emulsion with addition of 0.5% additive at a water application rate of 600 l/ha (converted). After the test plants had been kept in the greenhouse under optimum growth conditions for about 3 weeks, the activity of the preparations was rated visually in comparison to untreated controls. For example, 100% activity=the plants have died, 0% activity=like control plants. Tables B1 to B10 below show the effects of selected compounds of the general formula (I) according to Table 1 on various harmful plants and an application rate corresponding to 80 g/ha, which were obtained by the experimental procedure mentioned above.

Assay [3] deals with ABUTH: Abutilon theophrasti. The assay is described as follows: Pre-emergence herbicide efficacy at 80 g/ha, ABUTH. Type of assay: in vivo. The following applies: scored visually after about 3 weeks. The gist of the method: (§3)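 Applied to the soil surface directly after sowing, before emergence, as an aqueous WP or EC preparation containing 0.5% additive. Percent efficacy was rated by eye about 3 weeks later in the greenhouse.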

Assay [4] concerns ALOMY: Alopecurus myosuroides. Briefly: Post-emergence herbicidal efficacy at 80 g/ha, ALOMY. Type of assay: in vivo. The following applies: visual rating about 3 weeks after treatment vs untreated controls. On the procedure:
as §2

In assay [5] the test system is VERPE: Veronica persica. The assay is described as follows: Pre-emergence herbicide efficacy at 80 g/ha, VERPE. Type of assay: in vivo. To be noted: scored visually after about 3 weeks. The gist of the method:
as §3

Assay [6] has as its system AMARE: Amaranthus retroflexus. The assay is described as follows: Pre-emergence herbicide efficacy at 80 g/ha, AMARE. Type of assay: in vivo. To be noted: scored visually after about 3 weeks. The gist of the method: as §3
In assay [7] the test system is VERPE: Veronica persica. The assay is described as follows: Post-emergence herbicidal efficacy at 80 g/ha, VERPE. Type of assay: in vivo. To be noted: visual rating about 3 weeks after treatment vs untreated controls. The gist of the method:
(§4)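 Visual percent activity versus untreated plants (100% = plants died) was scored roughly 3 weeks after treatment. Plants grew in greenhouse pots of sandy loam and got a post-emergence spray at one-leaf stage: WP or EC compound with 0.5% additive, 600 l/ha water.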

Assay [8] concerns ECHCG: Echinochloa crus-galli. Briefly: Pre-emergence herbicide efficacy at 80 g/ha, ECHCG. To be noted: scored visually after about 3 weeks. Type of assay: in vivo.
Text: as §1

In assay [9] the test system is POLCO. Briefly: Pre-emergence herbicide efficacy at 80 g/ha, POLCO. Type of assay: in vivo. To be noted: Polygonum convolvulus, scored visually after about 3 weeks. The gist of the method: as §3
A further assay deals with LOLRI: Lolium rigidum. The assay is described as follows: Pre-emergence herbicide efficacy at 80 g/ha, LOLRI. Type of assay: in vivo. To be noted: scored visually after about 3 weeks.
Text: as §1

Assay [10] concerns MATIN: Matricaria inodora. The assay is described as follows: Pre-emergence herbicide efficacy at 80 g/ha, MATIN. Type of assay: in vivo. The following applies: scored visually after about 3 weeks.
Text: as §1

Assay [11] concerns DIGSA: Digitaria sanguinalis. Briefly: Post-emergence herbicidal efficacy at 80 g/ha, DIGSA. Type of assay: in vivo. To be noted: visual rating about 3 weeks after treatment vs untreated controls. As for the experimental part:
as §2

Assay [12] relates to ALOMY: Alopecurus myosuroides. The assay is described as follows: Pre-emergence herbicide efficacy at 80 g/ha, ALOMY. Type of assay: in vivo. To be noted: scored visually after about 3 weeks.
Text: as §1

Assay [13] deals with POLCO. Briefly: Post-emergence herbicidal efficacy at 80 g/ha, POLCO. Type of assay: in vivo, Polygonum convolvulus. The following applies: visual rating about 3 weeks after treatment vs untreated controls. On the procedure: as §2
The test system of assay [14] is DIGSA: Digitaria sanguinalis. The assay is described as follows: Pre-emergence herbicide efficacy at 80 g/ha, DIGSA. Type of assay: in vivo. To be noted: scored visually after about 3 weeks. The gist of the method:
as §3

Assay [15] concerns ECHCG: Echinochloa crus-galli. The assay is described as follows: Post-emergence herbicidal efficacy at 80 g/ha, ECHCG. The following applies: visual rating about 3 weeks after treatment vs untreated controls. Type of assay: in vivo. As for the experimental part: as §2
In assay [16] the test system is AMARE: Amaranthus retroflexus. The assay is described as follows: Post-emergence herbicidal efficacy at 80 g/ha, AMARE. Type of assay: in vivo. To be noted: visual rating about 3 weeks after treatment vs untreated controls. The gist of the method: as §4
The subject of assay [17] is ABUTH: Abutilon theophrasti. The assay is described as follows: Post-emergence herbicidal efficacy at 80 g/ha, ABUTH. Type of assay: in vivo. To be noted: rated visually after about 3 weeks vs untreated controls, 100% = plants have died, 0% = like control plants. As for the experimental part:
as §2

With `FC(F)c1cc(-c2c(Cl)cccc2Cc2ncc(Cl)cn2)on1` [Example 1-140], the “Pre-emergence efficacy against SETVI in %” value in the assay with SETVI: Setaria viridis [1] was 100%. The “Post-emergence efficacy against SETVI” value in the assay with SETVI: Setaria viridis [2] is on record as 80%. In [3], the “Pre-emergence efficacy against ABUTH in %” value was 100%. Besides, the “Post-emergence efficacy against ALOMY” value in [4] is recorded as 80%. In addition, the “Pre-emergence efficacy against VERPE in %” value with VERPE: Veronica persica [5] is given as 100%. Besides, the “Pre-emergence efficacy against AMARE in %” value in assay [6] amounted to 100%. In addition, in the assay with VERPE: Veronica persica [7], the “Post-emergence efficacy against VERPE” value was 100%. Moreover, the “Pre-emergence efficacy against ECHCG in %” value in assay [8] turned out to be 100%. In addition, the “Pre-emergence efficacy against POLCO in %” value with POLCO [9] is 90%. In the assay on LOLRI: Lolium rigidum, the “Pre-emergence efficacy against LOLRI in %” value is recorded as 90%. For the same molecule, the “Pre-emergence efficacy against MATIN in %” value in [10] is on record as 80%. Further, in assay [11], the “Post-emergence efficacy against DIGSA” value came out at 90%. Moreover, the “Pre-emergence efficacy against ALOMY in %” value in assay [12] was found to be 90%. In addition, in the assay with POLCO [13], the “Post-emergence efficacy against POLCO” value worked out at 100%. Also, the “Pre-emergence efficacy against DIGSA in %” value in [14] is on record as 100%. Also, in assay [15], the “Post-emergence efficacy against ECHCG” value was 90%. Also, the “Post-emergence efficacy against AMARE” value in assay [16] was 100%. The “Post-emergence efficacy at 80 g/ha against ABUTH in %” value in assay [17] was determined as 100%.
